Tests used:
[1] = target: T1, PDE4B: The catalytic domain of human PDE4B from S152-S528 (Homo sapiens, UniProt Q07343); assay: PDE4 IC50 determination by Scintillation Proximity Assay, PDE4B; assay type: biochemical; conditions: Table 1B, Formula I compounds; read-out: IC50 PDE4B
T1 construct: His6 (N); thrombin cleavage site (N); made in house; host or cells: E. coli
Method: (§1) IC50s were determined by Scintillation Proximity Assay (SPA). The principle of the assay is based on the fact that cAMP, the PDE4 substrate, binds weakly to Yittrium Silicate SPA beads, whereas AMP, the product of PDE4 hydrolysis binds strongly. Thus, the extent of PDE4 hydrolysis of a sample of [^3H]cAMP can be measured because only the
(§2) [^3H]AMP produced by PDE4 hydrolysis will bind to the SPA beads and produce a scintillation signal.
(§3) PDE4 enzymes used for IC50 assays were:
(§4) Enzyme was stored in 50% glycerol at −20°.
(§5) In addition to the compound dilutions, each assay plate contained control wells with 1 μl of DMSO (to define 0% enzyme inhibition) or 1 μl of 200 μM roflumilast (to define 100% enzyme inhibition). […] Next, 10 μl of PDE4 enzyme in assay buffer was added and the plates were shaken for 30 s. at 1000 rpm to start the cAMP hydrolysis reaction. The concentrations of enzyme used were: PDE4B, 80 ng/ml; PDE4D, 4 ng/ml; PDE4B2, 2.5 μl of 50% glycerol stock/ml; PDE4D5 0.083 μl of 50% glycerol stock/ml. Assay plates were covered and incubated for 30 min. at 30°. […] The assay plates were covered with clear plastic film, centrifuged for 1 min. at 1000 RPM to settle the SPA beads, and counted using a Wallac TriLux scintillation counter. IC50's were calculated from the raw assay data by non-linear regression curve fitting using the Assay Explorer software package from MDL.

PDE4D = target: T2, PDE4D (Homo sapiens, UniProt Q08499); assay: PDE4 IC50 determination by Scintillation Proximity Assay, PDE4D; assay type: biochemical; conditions: Table 1B, Formula I compounds; read-out: IC50 PDE4D
T2 construct: PDE4D: The catalytic domain of human PDE4B from S3 16-V692; His6 (N); thrombin cleavage site (N); made in house; host or cells: E. coli
T2 sequence (Q08499 380-756): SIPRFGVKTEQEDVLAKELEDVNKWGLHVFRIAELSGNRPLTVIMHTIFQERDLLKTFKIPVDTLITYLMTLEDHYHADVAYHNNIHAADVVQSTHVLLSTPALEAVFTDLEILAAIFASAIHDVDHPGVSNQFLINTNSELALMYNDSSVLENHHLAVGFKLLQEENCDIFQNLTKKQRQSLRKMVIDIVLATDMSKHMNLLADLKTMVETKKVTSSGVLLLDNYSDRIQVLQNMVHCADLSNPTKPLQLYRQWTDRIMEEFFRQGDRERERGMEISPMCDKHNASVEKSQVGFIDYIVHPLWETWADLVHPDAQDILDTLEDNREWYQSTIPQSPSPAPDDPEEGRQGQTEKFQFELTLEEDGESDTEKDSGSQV
Method: as §1, §2, §3, §4, §5

T1 sequence (Q07343 with tags, fused parts or gaps): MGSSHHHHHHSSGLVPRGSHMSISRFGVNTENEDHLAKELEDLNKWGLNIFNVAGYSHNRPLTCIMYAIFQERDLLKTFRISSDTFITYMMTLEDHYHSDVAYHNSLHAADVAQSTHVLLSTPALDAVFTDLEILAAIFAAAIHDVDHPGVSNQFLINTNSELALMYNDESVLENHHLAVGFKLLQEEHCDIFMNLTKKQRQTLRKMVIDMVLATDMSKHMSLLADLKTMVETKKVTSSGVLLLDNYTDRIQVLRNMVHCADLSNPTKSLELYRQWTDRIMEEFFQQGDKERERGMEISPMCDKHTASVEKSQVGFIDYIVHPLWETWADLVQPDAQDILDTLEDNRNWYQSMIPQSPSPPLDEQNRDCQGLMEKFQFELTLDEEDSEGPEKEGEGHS

SMILES | IC50 [1] | IC50 (PDE4D)
COC(=O)C(CCSC)Nc1sc(C(=O)c2ccccn2)c(N)c1C#N (stereo not shown) [Compound 1-65, 2-[4-Amino-3-cyano-5-(pyridine-2-carbonyl)-thiophen-2ylamino]-4-methylsulfanyl-butyric acid methyl ester] | > 10 µM | > 10 µM
COC(=O)C(CC(C)C)Nc1sc(C(=O)c2cc(-c3ccc(Cl)c(Cl)c3)no2)c(N)c1C#N (stereo not shown) [Compound 1-84, 2-{4-Amino-3-cyano-5-[3-(3,4-dichloro-phenyl)-isoxazole-5-carbonyl]-thiophen-2-ylamino}-4-methyl-pentanoic acid methyl ester] | > 10 µM | > 10 µM
COC(=O)C(CC(C)C)Nc1sc(C(=O)c2ccc(C)cc2C)c(N)c1C#N (stereo not shown) [Compound 1-87, 2-[4-Amino-3-cyano-5-(2,4-dimethyl-benzoyl)-thiophen-2-ylamino]-4-methyl-pentanoic acid methyl ester] | > 10 µM | > 10 µM
COc1ccc(OC)c(C(=O)c2sc(Nc3ccc(C(=O)NC4CCOC4=O)cc3)c(C#N)c2N)c1 (stereo not shown) [Compound 1-97, 4-[4-Amino-3-cyano-5-(2,5-dimethoxy-benzoyl)-thiophen-2-ylamino]-N-(2-oxo-tetrahydro-furan-3-yl)-benzamide] | > 10 µM | < 10 µM
COc1ccc(OC)c(C(=O)c2sc(NC3CCOC3=O)c(C#N)c2N)c1 (stereo not shown) [Compound 1-98, 4-Amino-5-(2,5-dimethoxy-benzoyl)-2-(2-oxo-tetrahydro-furan-3-ylamino)-thiophene-3-carbonitrile] | < 10 µM | > 10 µM
COc1ccc(C(=O)c2sc(Nc3ccccc3F)c(C#N)c2N)c(OC)c1 [Compound 1-100, 4-Amino-5-(2,4-dimethoxy-benzoyl)-2-(2-fluoro-phenylamino)-thiophene-3-carbonitrile] | < 10 µM | < 10 µM
COc1ccc(Nc2sc(C(=O)c3ccc(OC)cc3OC)c(N)c2C#N)cc1 [Compound 1-101, 4-Amino-5-(2,4-dimethoxy-benzoyl)-2-(4-methoxy-phenylamino)-thiophene-3-carbonitrile] | < 10 µM | < 10 µM
COc1ccc(C(=O)c2sc(Nc3ccc4c(c3)CCC4)c(C#N)c2N)c(OC)c1 [Compound 1-102, 4-Amino-5-(2,4-dimethoxy-benzoyl)-2-(indan-5-ylamino)-thiophene-3-carbonitrile] | < 10 µM | < 10 µM
COc1ccc(C(=O)c2sc(Nc3ccc(C(=O)NC4CCOC4=O)cc3)c(C#N)c2N)c(OC)c1 (stereo not shown) [Compound 1-103, 4-[4-Amino-3-cyano-5-(2,4-dimethoxy-benzoyl)-thiophen-2-ylamino]-N-(2-oxo-tetrahydro-furan-3-yl)-benzamide] | > 10 µM | > 10 µM
CCc1ccccc1Nc1sc(C(=O)c2ccc(OC)cc2OC)c(N)c1C#N [Compound 1-104, 4-Amino-5-(2,4-dimethoxy-benzoyl)-2-(2-ethyl-phenylamino)-thiophene-3-carbonitrile] | < 10 µM | < 10 µM
COc1ccc(Nc2sc(C(=O)c3coc4ccccc34)c(N)c2C#N)cc1 [Compound 1-105, 4-Amino-5-(benzofuran-3-carbonyl)-2-(4-methoxy-phenylamino)-thiophene-3-carbonitrile] | < 10 µM | < 10 µM
COC(=O)C(CC(C)C)Nc1sc(C(=O)c2coc3ccccc23)c(N)c1C#N (stereo not shown) [Compound 1-106, 2-[4-Amino-5-(benzofuran-3-carbonyl)-3-cyano-thiophen-2-ylamino]-4-methyl-pentanoic acid methyl ester] | < 10 µM | > 10 µM
COC(=O)C(CCSC)Nc1sc(C(=O)c2coc3ccccc23)c(N)c1C#N (stereo not shown) [Compound 1-107, 2-[4-Amino-5-(benzofuran-3-carbonyl)-3-cyano-thiophen-2-ylamino]-4-methylsulfanyl-butyric acid methyl ester] | < 10 µM | < 10 µM
N#Cc1c(Nc2ccc(C(=O)NC3CCOC3=O)cc2)sc(C(=O)c2coc3ccccc23)c1N (stereo not shown) [Compound 1-108, 4-[4-Amino-5-(benzofuran-3-carbonyl)-3-cyano-thiophen-2-ylamino]-N-(2-oxo-tetrahydro-furan-3-yl)-benzamide] | < 10 µM | < 10 µM
CCc1ccccc1Nc1sc(C(=O)c2coc3ccccc23)c(N)c1C#N [Compound 1-109, 4-Amino-5-(benzofuran-3-carbonyl)-2-(2-ethyl-phenylamino)-thiophene-3-carbonitrile] | < 10 µM | < 10 µM

Next, values leading:

IC50 [1] | IC50 (PDE4D) | SMILES
< 10 µM | < 10 µM | N#Cc1c(NCCN2CCCCC2)sc(C(=O)c2ccc(-c3ccccn3)s2)c1N [Compound 1-70, 4-Amino-2-(2-piperidin-1-yl-ethylamino)-5-(5-pyridin-2-yl-thiophene-2-carbonyl)-thiophene-3-carbonitrile]
< 10 µM | < 10 µM | COC(=O)C(CC(C)C)Nc1sc(C(=O)c2ccc(-c3ccccn3)s2)c(N)c1C#N (stereo not shown) [Compound 1-72, 2-[4-Amino-3-cyano-5-(5-pyridin-2-yl-thiophene-2-carbonyl)-thiophen-2-ylamino]-4-methyl-pentanoic acid methyl ester]
< 10 µM | < 10 µM | COC(=O)c1ccccc1Nc1sc(C(=O)c2ccc(-c3ccccn3)s2)c(N)c1C#N [Compound 1-73, 2-[4-Amino-3-cyano-5-(5-pyridin-2-yl-thiophene-2-carbonyl)-thiophen-2-ylamino]-benzoic acid methyl ester]
< 10 µM | > 10 µM | N#Cc1c(Nc2ccc(Oc3ccccc3)cc2)sc(C(=O)c2ccc(-c3ccccn3)s2)c1N [Compound 1-76, 4-Amino-2-(4-phenoxy-phenylamino)-5-(5-pyridin-2-yl-thiophene-2-carbonyl)-thiophene-3-carbonitrile]
< 10 µM | < 10 µM | N#Cc1c(NC2CCOC2=O)sc(C(=O)c2ccc(-c3ccccn3)s2)c1N (stereo not shown) [Compound 1-79, 4-Amino-2-(2-oxo-tetrahydro-furan-3-ylamino)-5-(5-pyridin-2-yl-thiophene-2-carbonyl)-thiophene-3-carbonitrile]
< 10 µM | < 10 µM | N#Cc1c(NCC2CCCO2)sc(C(=O)c2ccc(-c3ccccn3)s2)c1N (stereo not shown) [Compound 1-80, 4-Amino-5-(5-pyridin-2-yl-thiophene-2-carbonyl)-2-[(tetrahydro-furan-2-ylmethyl)-amino]-thiophene-3-carbonitrile]
< 10 µM | > 10 µM | COC(=O)C(CCSC)Nc1sc(C(=O)c2ccc(C)cc2C)c(N)c1C#N (stereo not shown) [Compound 1-88, 2-[4-Amino-3-cyano-5-(2,4-dimethyl-benzoyl)-thiophen-2-ylamino]-4-methylsulfanyl-butyric acid methyl ester]
< 10 µM | < 10 µM | Cc1ccc(C(=O)c2sc(Nc3ccc(C(=O)NC4CCOC4=O)cc3)c(C#N)c2N)c(C)c1 (stereo not shown) [Compound 1-89, 4-[4-Amino-3-cyano-5-(2,4-dimethyl-benzoyl)-thiophen-2-ylamino]-N-(2-oxo-tetrahydro-furan-3-yl)-benzamide]
< 10 µM | > 10 µM | Cc1ccc(C(=O)c2sc(NC3CCOC3=O)c(C#N)c2N)c(C)c1 (stereo not shown) [Compound 1-91, 4-Amino-5-(2,4-dimethyl-benzoyl)-2-(2-oxo-tetrahydro-furan-3-ylamino)-thiophene-3-carbonitrile]
< 10 µM | < 10 µM | COc1ccc(OC)c(C(=O)c2sc(Nc3ccccc3F)c(C#N)c2N)c1 [Compound 1-92, 4-Amino-5-(2,5-dimethoxy-benzoyl)-2-(2-fluoro-phenylamino)-thiophene-3-carbonitrile]
< 10 µM | < 10 µM | COc1ccc(Nc2sc(C(=O)c3cc(OC)ccc3OC)c(N)c2C#N)cc1 [Compound 1-93, 4-Amino-5-(2,5-dimethoxy-benzoyl)-2-(4-methoxy-phenylamino)-thiophene-3-carbonitrile]
< 10 µM | < 10 µM | COc1ccc(OC)c(C(=O)c2sc(Nc3ccc4c(c3)CCC4)c(C#N)c2N)c1 [Compound 1-94, 4-Amino-5-(2,5-dimethoxy-benzoyl)-2-(indan-5-ylamino)-thiophene-3-carbonitrile]
< 10 µM | > 10 µM | COC(=O)C(CCSC)Nc1sc(C(=O)c2cc(OC)ccc2OC)c(N)c1C#N (stereo not shown) [Compound 1-95, 2-[4-Amino-3-cyano-5-(2,5-dimethoxy-benzoyl)-thiophen-2-ylamino]-4-methylsulfanyl-butyric acid methyl ester]
< 10 µM | > 10 µM | COc1ccc(OC)c(C(=O)c2sc(Nc3ccc(Oc4ccccc4)cc3)c(C#N)c2N)c1 [Compound 1-96, 4-Amino-5-(2,5-dimethoxy-benzoyl)-2-(4-phenoxy-phenylamino)-thiophene-3-carbonitrile]

— patent US7585859B2, “PDE4B inhibitors and uses therefor” (Plexxikon, Inc., priority 2004, dated 2009)
